ChEMBL document CHEMBL1671627, “Increasing trends in antimicrobial resistance among clinically important anaerobes and Bacteroides fragilis isolates causing nosocomial infections: emerging resistance to carbapenems” (2008)
Values after ≈ are worked out from the molar mass of the structure shown.

How the values were obtained:
Parvimonas micra [1] = assay: Antibacterial activity against beta-lactamase producing Micromonas micros assessed as susceptible isolates by CLSI agar dilution method; format: functional
Fusobacterium varium [2] = assay: Antibacterial activity against Fusobacterium varium assessed as susceptible isolates by CLSI agar dilution method; format: functional
Prevotella buccae [3] = assay: Antibacterial activity against Prevotella buccae assessed as susceptible isolates by CLSI agar dilution method; format: functional, Segatella buccae
[4] = tested on: Peptostreptococcus anaerobius; assay: Antibacterial activity against beta-lactamase producing Peptostreptococcus anaerobius by CLSI agar dilution method; format: functional
Phocaeicola vulgatus [5] = assay: Antibacterial activity against beta-lactamase producing Bacteroides vulgatus assessed as susceptible isolates by CLSI agar dilution method; format: functional
[6] = tested on: Prevotella melaninogenica; assay: Antibacterial activity against Prevotella melaninogenica assessed as resistant isolates by CLSI agar dilution method; format: functional
[7] = tested on: Peptoniphilus asaccharolyticus; assay: Antibacterial activity against beta-lactamase producing Peptoniphilus asaccharolyticus assessed as resistant isolates by CLSI agar dilution method; format: functional
Clostridium tertium [8] = assay: Antibacterial activity against beta-lactamase producing Clostridium tertium assessed as susceptible isolates by CLSI agar dilution method; format: functional
[9] = tested on: Bacteroides thetaiotaomicron; assay: Antibacterial activity against beta-lactamase producing Bacteroides thetaiotaomicron by CLSI agar dilution method; format: functional
[10] = tested on: Clostridium paraputrificum; assay: Antibacterial activity against beta-lactamase producing Clostridium paraputrificum by CLSI agar dilution method; format: functional
Fusobacterium varium [11] = assay: Antibacterial activity against Fusobacterium varium by CLSI agar dilution method; format: functional
[12] = tested on: Peptoniphilus asaccharolyticus; assay: Antibacterial activity against beta-lactamase producing Peptoniphilus asaccharolyticus assessed as susceptible isolates by CLSI agar dilution method; format: functional
[13] = tested on: Clostridium paraputrificum; assay: Antibacterial activity against beta-lactamase producing Clostridium paraputrificum assessed as susceptible isolates by CLSI agar dilution method; format: functional
Finegoldia magna [14] = assay: Antibacterial activity against beta-lactamase producing Finegoldia magna by CLSI agar dilution method; format: functional
[15] = tested on: Bacteroides thetaiotaomicron; assay: Antibacterial activity against beta-lactamase producing Bacteroides thetaiotaomicron assessed as resistant isolates by CLSI agar dilution method; format: functional
Bacteroides fragilis [16] = assay: Antibacterial activity against Bacteroides fragilis assessed as susceptible isolates by CLSI agar dilution method; format: functional
Bacteroides fragilis [17] = assay: Antibacterial activity against Bacteroides fragilis by CLSI agar dilution method; format: functional
Clostridium tertium [18] = assay: Antibacterial activity against beta-lactamase producing Clostridium tertium by CLSI agar dilution method; format: functional
Veillonella parvula = assay: Antibacterial activity against Veillonella parvula by CLSI agar dilution method; format: functional
Fusobacterium mortiferum [19] = assay: Antibacterial activity against Fusobacterium mortiferum assessed as susceptible isolates by CLSI agar dilution method; format: functional
Clostridium perfringens = assay: microbe, parasite or virus in culture; format: functional
Fusobacterium mortiferum [20] = assay: Antibacterial activity against Fusobacterium mortiferum by CLSI agar dilution method; format: functional
Fusobacterium nucleatum [21] = assay: Antibacterial activity against Fusobacterium nucleatum by CLSI agar dilution method; format: functional
Bacteroides caccae [22] = assay: Antibacterial activity against beta-lactamase producing Bacteroides caccae assessed as susceptible isolates by CLSI agar dilution method; format: functional
Bacteroides caccae [23] = assay: Antibacterial activity against beta-lactamase producing Bacteroides caccae assessed as resistant isolates by CLSI agar dilution method; format: functional
[24] = tested on: Prevotella melaninogenica; assay: Antibacterial activity against Prevotella melaninogenica assessed as susceptible isolates by CLSI agar dilution method; format: functional
Finegoldia magna [25] = assay: Antibacterial activity against beta-lactamase producing Finegoldia magna assessed as susceptible isolates by CLSI agar dilution method; format: functional
Bacteroides uniformis [26] = assay: Antibacterial activity against beta-lactamase producing Bacteroides uniformis assessed as resistant isolates by CLSI agar dilution method; format: functional
[27] = tested on: Clostridium paraputrificum; assay: Antibacterial activity against beta-lactamase producing Clostridium paraputrificum assessed as resistant isolates by CLSI agar dilution method; format: functional
Phocaeicola vulgatus [28] = assay: Antibacterial activity against beta-lactamase producing Bacteroides vulgatus by CLSI agar dilution method; format: functional
Prevotella buccae [29] = assay: Antibacterial activity against Prevotella buccae assessed as resistant isolates by CLSI agar dilution method; format: functional, Segatella buccae
Prevotella bivia [30] = assay: Antibacterial activity against Prevotella bivia by CLSI agar dilution method; format: functional
Fusobacterium nucleatum [31] = assay: Antibacterial activity against Fusobacterium nucleatum assessed as susceptible isolates by CLSI agar dilution method; format: functional
Parvimonas micra [32] = assay: Antibacterial activity against beta-lactamase producing Micromonas micros assessed as resistant isolates by CLSI agar dilution method; format: functional
Clostridium tertium [33] = assay: Antibacterial activity against beta-lactamase producing Clostridium tertium assessed as resistant isolates by CLSI agar dilution method; format: functional
[34] = tested on: Peptoniphilus asaccharolyticus; assay: Antibacterial activity against beta-lactamase producing Peptoniphilus asaccharolyticus by CLSI agar dilution method; format: functional
Prevotella intermedia [35] = assay: Antibacterial activity against Prevotella intermedia by CLSI agar dilution method; format: functional
Prevotella bivia [36] = assay: Antibacterial activity against Prevotella bivia assessed as susceptible isolates by CLSI agar dilution method; format: functional
Clostridium septicum [37] = assay: Antibacterial activity against beta-lactamase producing Clostridium septicum by CLSI agar dilution method; format: functional
Clostridium septicum [38] = assay: Antibacterial activity against beta-lactamase producing Clostridium septicum assessed as resistant isolates by CLSI agar dilution method; format: functional
[39] = tested on: Peptostreptococcus anaerobius; assay: Antibacterial activity against beta-lactamase producing Peptostreptococcus anaerobius assessed as resistant isolates by CLSI agar dilution method; format: functional
[40] = tested on: Fusobacterium necrophorum; assay: Antibacterial activity against Fusobacterium necrophorum assessed as resistant isolates by CLSI agar dilution method; format: functional
Prevotella intermedia [41] = assay: Antibacterial activity against Prevotella intermedia assessed as susceptible isolates by CLSI agar dilution method; format: functional
Prevotella buccae [42] = assay: Antibacterial activity against Prevotella buccae by CLSI agar dilution method; format: functional; details: Segatella buccae
Fusobacterium varium [43] = assay: Antibacterial activity against Fusobacterium varium assessed as resistant isolates by CLSI agar dilution method; format: functional
[44] = tested on: Prevotella melaninogenica; assay: Antibacterial activity against Prevotella melaninogenica by CLSI agar dilution method; format: functional
Bacteroides caccae [45] = assay: Antibacterial activity against beta-lactamase producing Bacteroides caccae by CLSI agar dilution method; format: functional
Prevotella bivia [46] = assay: Antibacterial activity against Prevotella bivia assessed as resistant isolates by CLSI agar dilution method; format: functional
Phocaeicola vulgatus [47] = assay: Antibacterial activity against beta-lactamase producing Bacteroides vulgatus assessed as resistant isolates by CLSI agar dilution method; format: functional
Bacteroides fragilis [48] = assay: Antibacterial activity against Bacteroides fragilis assessed as resistant isolates by CLSI agar dilution method; format: functional
Fusobacterium mortiferum [49] = assay: Antibacterial activity against Fusobacterium mortiferum assessed as resistant isolates by CLSI agar dilution method; format: functional
[50] = tested on: Peptostreptococcus anaerobius; assay: Antibacterial activity against beta-lactamase producing Peptostreptococcus anaerobius assessed as susceptible isolates by CLSI agar dilution method; format: functional
Clostridium septicum [51] = assay: Antibacterial activity against beta-lactamase producing Clostridium septicum assessed as susceptible isolates by CLSI agar dilution method; format: functional
Prevotella intermedia [52] = assay: Antibacterial activity against Prevotella intermedia assessed as resistant isolates by CLSI agar dilution method; format: functional
Bacteroides uniformis [53] = assay: Antibacterial activity against beta-lactamase producing Bacteroides uniformis assessed as susceptible isolates by CLSI agar dilution method; format: functional
Parvimonas micra [54] = assay: Antibacterial activity against beta-lactamase producing Micromonas micros by CLSI agar dilution method; format: functional
[55] = tested on: Bacteroides thetaiotaomicron; assay: Antibacterial activity against beta-lactamase producing Bacteroides thetaiotaomicron assessed as susceptible isolates by CLSI agar dilution method; format: functional
Bacteroides uniformis [56] = assay: Antibacterial activity against beta-lactamase producing Bacteroides uniformis by CLSI agar dilution method; format: functional
[57] = tested on: Fusobacterium necrophorum; assay: Antibacterial activity against Fusobacterium necrophorum by CLSI agar dilution method; format: functional
Finegoldia magna [58] = assay: Antibacterial activity against beta-lactamase producing Finegoldia magna assessed as resistant isolates by CLSI agar dilution method; format: functional
[59] = tested on: Fusobacterium necrophorum; assay: Antibacterial activity against Fusobacterium necrophorum assessed as susceptible isolates by CLSI agar dilution method; format: functional
Fusobacterium nucleatum [60] = assay: Antibacterial activity against Fusobacterium nucleatum assessed as resistant isolates by CLSI agar dilution method; format: functional

Question: Which results are given for `Cc1ncc([N+](=O)[O-])n1CCO` [METRONIDAZOLE]?
Answer: Activity (Parvimonas micra [1]): 88%; Activity (Fusobacterium varium [2]): 100%; Activity (Prevotella buccae [3]): 94%; MIC50 [4]: 0.5 µg/mL (≈ 2.92 µM); MIC90 [4]: 16 µg/mL (≈ 93.5 µM); Activity (Phocaeicola vulgatus [5]): 100%; Activity [6]: 0%; Activity [7]: 9%; Activity (Clostridium tertium [8]): 64%; MIC50 [9]: 1 µg/mL (≈ 5.84 µM); MIC90 [9]: 2 µg/mL (≈ 11.7 µM); MIC50 [10]: 8 µg/mL (≈ 46.7 µM); MIC90 [10]: 16 µg/mL (≈ 93.5 µM); MIC50 (Fusobacterium varium [11]): 0.5 µg/mL (≈ 2.92 µM); MIC90 (Fusobacterium varium [11]): 1 µg/mL (≈ 5.84 µM); Activity [12]: 88%; Activity [13]: 64%; MIC50 (Finegoldia magna [14]): 0.5 µg/mL (≈ 2.92 µM); MIC90 (Finegoldia magna [14]): 16 µg/mL (≈ 93.5 µM); Activity [15]: 0%; Activity (Bacteroides fragilis [16]): 98%; MIC50 (Bacteroides fragilis [17]): 2 µg/mL (≈ 11.7 µM); MIC90 (Bacteroides fragilis [17]): 8 µg/mL (≈ 46.7 µM); MIC50 (Clostridium tertium [18]): 8 µg/mL (≈ 46.7 µM); MIC90 (Clostridium tertium [18]): 16 µg/mL (≈ 93.5 µM); MIC (Veillonella parvula): 1 µg/mL (≈ 5.84 µM); Activity (Fusobacterium mortiferum [19]): 100%; MIC50 (Clostridium perfringens): 8 µg/mL (≈ 46.7 µM); MIC90 (Clostridium perfringens): 16 µg/mL (≈ 93.5 µM); MIC50 (Fusobacterium mortiferum [20]): 0.5 µg/mL (≈ 2.92 µM); MIC90 (Fusobacterium mortiferum [20]): 1 µg/mL (≈ 5.84 µM); MIC50 (Fusobacterium nucleatum [21]): 0.5 µg/mL (≈ 2.92 µM); MIC90 (Fusobacterium nucleatum [21]): 1 µg/mL (≈ 5.84 µM); Activity (Bacteroides caccae [22]): 100%; Activity (Bacteroides caccae [23]): 0%; Activity [24]: 94%; Activity (Finegoldia magna [25]): 88%; Activity (Bacteroides uniformis [26]): 0%; Activity [27]: 11%; MIC50 (Phocaeicola vulgatus [28]): 1 µg/mL (≈ 5.84 µM); MIC90 (Phocaeicola vulgatus [28]): 4 µg/mL (≈ 23.4 µM); Activity (Prevotella buccae [29]): 0%; MIC50 (Prevotella bivia [30]): 1 µg/mL (≈ 5.84 µM); MIC90 (Prevotella bivia [30]): 8 µg/mL (≈ 46.7 µM); Activity (Fusobacterium nucleatum [31]): 100%; Activity (Parvimonas micra [32]): 9%; Activity (Clostridium tertium [33]): 11%; MIC50 [34]: 0.5 µg/mL (≈ 2.92 µM); MIC90 [34]: 16 µg/mL (≈ 93.5 µM); MIC50 (Prevotella intermedia [35]): 1 µg/mL (≈ 5.84 µM); MIC90 (Prevotella intermedia [35]): 8 µg/mL (≈ 46.7 µM); Activity (Prevotella bivia [36]): 94%; MIC50 (Clostridium septicum [37]): 8 µg/mL (≈ 46.7 µM); MIC90 (Clostridium septicum [37]): 16 µg/mL (≈ 93.5 µM); Activity (Clostridium septicum [38]): 11%; Activity [39]: 9%; Activity [40]: 0%; Activity (Prevotella intermedia [41]): 94%; MIC50 (Prevotella buccae [42]): 1 µg/mL (≈ 5.84 µM); MIC90 (Prevotella buccae [42]): 8 µg/mL (≈ 46.7 µM); Activity (Fusobacterium varium [43]): 0%; MIC50 [44]: 1 µg/mL (≈ 5.84 µM); MIC90 [44]: 8 µg/mL (≈ 46.7 µM); MIC50 (Bacteroides caccae [45]): 1 µg/mL (≈ 5.84 µM); MIC90 (Bacteroides caccae [45]): 4 µg/mL (≈ 23.4 µM); Activity (Prevotella bivia [46]): 0%; Activity (Phocaeicola vulgatus [47]): 0%; Activity (Bacteroides fragilis [48]): 0%; Activity (Fusobacterium mortiferum [49]): 0%; Activity [50]: 88%; Activity (Clostridium septicum [51]): 64%; Activity (Prevotella intermedia [52]): 0%; Activity (Bacteroides uniformis [53]): 100%; MIC50 (Parvimonas micra [54]): 0.5 µg/mL (≈ 2.92 µM); MIC90 (Parvimonas micra [54]): 16 µg/mL (≈ 93.5 µM); Activity [55]: 100%; MIC50 (Bacteroides uniformis [56]): 1 µg/mL (≈ 5.84 µM); MIC90 (Bacteroides uniformis [56]): 4 µg/mL (≈ 23.4 µM); MIC50 [57]: 0.5 µg/mL (≈ 2.92 µM); MIC90 [57]: 1 µg/mL (≈ 5.84 µM); Activity (Finegoldia magna [58]): 9%; Activity [59]: 100%; Activity (Fusobacterium nucleatum [60]): 0%
